# Results as given in ChEMBL document CHEMBL1201862, “PubChem BioAssay data set” (2004).
#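 Five concentrations, 48 hours, 96-well plates. The concentration for 50% growth inhibition is given as GI50.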 Activity calls are given as the source filed them. Cut-off read from the data, not from the text of the source: active = GI50 up to about 1.1 µM and inactive = higher.
# Key:
# Experiment in all cases: growth of human tumour cells (NCI), 48 h
# DLD-1 = system: DLD-1
# RXF 631 = system: RXF 631
# HOP-18 = system: HOP-18
# DMS-114 = system: DMS-114
# KM-20L2 = system: KM-20L2
# M19-MEL = system: M19-MEL
# LXFL 529 = system: LXFL 529
# XF498 = system: XF498
# DMS-273 = system: DMS-273
Structure (SMILES),GI50 (DLD-1),GI50 (RXF 631),GI50 (HOP-18),GI50 (DMS-114),GI50 (KM-20L2),GI50 (M19-MEL),GI50 (LXFL 529),GI50 (XF498),GI50 (DMS-273)
COc1ccccc1/C=C(\NC(=O)c1ccccc1)c1nc2ccccc2[nH]1,37.3 µM (inactive),> 100 µM (inactive),46.3 µM (inactive),29.4 µM (inactive),59.8 µM (inactive),38.3 µM (inactive),29.9 µM (inactive),36.1 µM (inactive),–
Oc1cc2c(cc1O)-c1[nH]ncc1CC2,52.5 µM (inactive),–,6.15 µM (inactive),16.5 µM (inactive),38.5 µM (inactive),40.7 µM (inactive),31.3 µM (inactive),27.6 µM (inactive),42.1 µM (inactive)
O=C(Nc1nc2ncn(CCI)c2c(=O)[nH]1)c1ccccc1,–,> 100 µM (inactive),> 56.1 µM (inactive),–,> 100 µM (inactive),> 100 µM (inactive),> 100 µM (inactive),20.4 µM (inactive),> 100 µM (inactive)
OC1(C(Sc2ccccc2)Sc2ccccc2)CCCCCC1,38.4 µM (inactive),–,–,27.1 µM (inactive),2.81 µM (inactive),35.2 µM (inactive),–,13.6 µM (inactive),27.8 µM (inactive)
CCc1cccc(C(C)C)c1NC(=O)CCl,> 100 µM (inactive),19.7 µM (inactive),–,–,> 100 µM (inactive),58.3 µM (inactive),> 100 µM (inactive),> 100 µM (inactive),> 100 µM (inactive)
CC(CCC[C@H](C)CO)[C@H]1[C@@H](O)C(O)C2[C@@H]3C[C@@H](O)C4(O)C[C@@H](O)CC[C@]4(C)C3CC[C@@]21C (stereo partly specified),> 100 µM (inactive),–,> 100 µM (inactive),84.7 µM (inactive),> 100 µM (inactive),> 100 µM (inactive),> 100 µM (inactive),> 100 µM (inactive),> 100 µM (inactive)
CC(=O)OC1CCC2C(=CCC3C2(C)C(=O)CC2(C)C(C4(C)OC(C(C)C)=CC4=O)C(O)CC32C)C1(C)C (stereo unspecified),32.5 µM (inactive),–,–,25.8 µM (inactive),17.9 µM (inactive),12.6 µM (inactive),31.3 µM (inactive),31.3 µM (inactive),23.3 µM (inactive)
c1ccc(C(c2ccccc2)c2ccncc2)cc1,> 100 µM (inactive),> 100 µM (inactive),> 100 µM (inactive),> 100 µM (inactive),> 100 µM (inactive),> 100 µM (inactive),–,> 100 µM (inactive),> 100 µM (inactive)
COc1cc2c(c(O)c1C)C(=O)C(Cl)=CC2=O,17.4 µM (inactive),12.1 µM (inactive),16.5 µM (inactive),16.6 µM (inactive),23.1 µM (inactive),7.98 µM (inactive),7.43 µM (inactive),20 µM (inactive),19.2 µM (inactive)
CC(C)(C)c1ccc(OCCOCCOc2ccc(C(C)(C)C)cc2S(=O)(=O)Nc2ccc([N+](=O)[O-])cc2)c(S(=O)(=O)Nc2ccc([N+](=O)[O-])cc2)c1,38.6 µM (inactive),6.82 µM (inactive),9.75 µM (inactive),9.42 µM (inactive),–,6.11 µM (inactive),–,–,7.94 µM (inactive)
CCCCc1c2c(nc3c1CCc1cc(C=O)c(N)nc1-3)/C(=C/c1ccccc1)CCC2,–,–,> 100 µM (inactive),> 100 µM (inactive),> 100 µM (inactive),> 100 µM (inactive),> 100 µM (inactive),44.4 µM (inactive),> 100 µM (inactive)
CC(=O)OC12C(C)=C(C)C(=O)N1c1ccccc1N2C(C)=O (stereo unspecified),–,–,> 100 µM (inactive),–,> 100 µM (inactive),> 100 µM (inactive),> 100 µM (inactive),> 100 µM (inactive),> 100 µM (inactive)
N#CC(C(=O)C(=O)Nc1c(Cl)cccc1Cl)c1ccccc1 (stereo unspecified),> 10 µM (inactive),> 10 µM (inactive),> 10 µM (inactive),> 10 µM (inactive),> 10 µM (inactive),> 10 µM (inactive),> 10 µM (inactive),> 100 µM (inactive),> 10 µM (inactive)
CC(=O)OCSc1ncnc2c1ncn2CN1CCOCC1,6.55 µM (inactive),–,40.1 µM (inactive),6.53 µM (inactive),7.59 µM (inactive),59 µM (inactive),> 100 µM (inactive),–,5.11 µM (inactive)
C=CCN1/C(=C2\SC(=S)N(c3ccc(C)cc3)C2=O)Sc2c1ncn(C)c2=O,> 100 µM (inactive),–,–,> 100 µM (inactive),> 100 µM (inactive),> 100 µM (inactive),59.7 µM (inactive),73.5 µM (inactive),> 100 µM (inactive)
CC1OC(CC2C=CCc3c(O)c4c(c(O)c32)C(=O)c2ccccc2C4=O)CC(NC(=O)C(F)(F)F)C1O (stereo unspecified),7.38 µM (inactive),–,–,10 µM (inactive),16.3 µM (inactive),8.22 µM (inactive),6.87 µM (inactive),1.91 µM (inactive),6.32 µM (inactive)
Cc1ccc(-n2cc(/C(N)=N/O)c3ccccc3c2=O)cc1,–,–,–,> 100 µM (inactive),> 100 µM (inactive),> 100 µM (inactive),> 100 µM (inactive),> 100 µM (inactive),> 100 µM (inactive)
COc1cc(/C=C/c2ccncc2)cc(OC)c1OC,> 100 µM (inactive),31.6 µM (inactive),70.8 µM (inactive),> 100 µM (inactive),65.5 µM (inactive),–,55 µM (inactive),22.4 µM (inactive),96.6 µM (inactive)
O=C(Nc1ccccc1[N+](=O)[O-])C(=O)C(C(=O)c1ccccc1-c1ccccc1)C1OC(=O)c2ccccc21 (stereo unspecified),21.4 µM (inactive),13.4 µM (inactive),14.1 µM (inactive),13.6 µM (inactive),18.2 µM (inactive),12.6 µM (inactive),11 µM (inactive),–,14.3 µM (inactive)
CCOC(=O)NC/C=C/CO,> 100 µM (inactive),> 100 µM (inactive),> 100 µM (inactive),> 100 µM (inactive),> 100 µM (inactive),> 100 µM (inactive),> 100 µM (inactive),–,> 100 µM (inactive)
C[S+]([O-])c1cc(=O)c2ccccc2s1 (stereo unspecified),2.14 µM (inactive),–,10.3 µM (inactive),4.2 µM (inactive),6.25 µM (inactive),6.03 µM (inactive),1.54 µM (inactive),4.1 µM (inactive),8.67 µM (inactive)
CCOC(=O)Cc1nc(/C(C#N)=C/c2ccco2)[nH]c(=O)c1C#N,> 100 µM (inactive),–,> 100 µM (inactive),–,> 100 µM (inactive),> 100 µM (inactive),> 100 µM (inactive),–,> 100 µM (inactive)
Cc1cc(C)nc(NS(=O)(=O)c2ccc(Nc3c4ccccc4nc4c(C(=O)Nc5ccc(S(N)(=O)=O)cc5)cccc34)cc2)n1,71.8 µM (inactive),–,51.6 µM (inactive),> 100 µM (inactive),> 100 µM (inactive),94.2 µM (inactive),88.9 µM (inactive),> 100 µM (inactive),92.5 µM (inactive)
CCN(CCCl)CCCNc1c2ccccc2nc2ccc(OC)cc12,0.084 µM (active),–,–,0.314 µM (active),0.181 µM (active),0.216 µM (active),0.0912 µM (active),0.116 µM (active),0.059 µM (active)
